# Experimental data taken from patent US11725011B2, “Bicyclic urea kinase inhibitors and uses thereof” (The Broad Institute, Inc., priority 2016, dated 2023).
# Legend:
# Assay in all cases: KINOMEscan
# Format in all cases: binding
# Settings in all cases: 1 uM
# [1] = molecular target: ABL1-nonphosphorylated (Homo sapiens (Human), UniProt P00519)
# [2] = molecular target: ABL1-phosphorylated (Homo sapiens (Human), UniProt P00519)
# [3] = molecular target: ABL2 (Homo sapiens (Human), UniProt P42684)
# Sequence of ABL2 (P42684 whole entry): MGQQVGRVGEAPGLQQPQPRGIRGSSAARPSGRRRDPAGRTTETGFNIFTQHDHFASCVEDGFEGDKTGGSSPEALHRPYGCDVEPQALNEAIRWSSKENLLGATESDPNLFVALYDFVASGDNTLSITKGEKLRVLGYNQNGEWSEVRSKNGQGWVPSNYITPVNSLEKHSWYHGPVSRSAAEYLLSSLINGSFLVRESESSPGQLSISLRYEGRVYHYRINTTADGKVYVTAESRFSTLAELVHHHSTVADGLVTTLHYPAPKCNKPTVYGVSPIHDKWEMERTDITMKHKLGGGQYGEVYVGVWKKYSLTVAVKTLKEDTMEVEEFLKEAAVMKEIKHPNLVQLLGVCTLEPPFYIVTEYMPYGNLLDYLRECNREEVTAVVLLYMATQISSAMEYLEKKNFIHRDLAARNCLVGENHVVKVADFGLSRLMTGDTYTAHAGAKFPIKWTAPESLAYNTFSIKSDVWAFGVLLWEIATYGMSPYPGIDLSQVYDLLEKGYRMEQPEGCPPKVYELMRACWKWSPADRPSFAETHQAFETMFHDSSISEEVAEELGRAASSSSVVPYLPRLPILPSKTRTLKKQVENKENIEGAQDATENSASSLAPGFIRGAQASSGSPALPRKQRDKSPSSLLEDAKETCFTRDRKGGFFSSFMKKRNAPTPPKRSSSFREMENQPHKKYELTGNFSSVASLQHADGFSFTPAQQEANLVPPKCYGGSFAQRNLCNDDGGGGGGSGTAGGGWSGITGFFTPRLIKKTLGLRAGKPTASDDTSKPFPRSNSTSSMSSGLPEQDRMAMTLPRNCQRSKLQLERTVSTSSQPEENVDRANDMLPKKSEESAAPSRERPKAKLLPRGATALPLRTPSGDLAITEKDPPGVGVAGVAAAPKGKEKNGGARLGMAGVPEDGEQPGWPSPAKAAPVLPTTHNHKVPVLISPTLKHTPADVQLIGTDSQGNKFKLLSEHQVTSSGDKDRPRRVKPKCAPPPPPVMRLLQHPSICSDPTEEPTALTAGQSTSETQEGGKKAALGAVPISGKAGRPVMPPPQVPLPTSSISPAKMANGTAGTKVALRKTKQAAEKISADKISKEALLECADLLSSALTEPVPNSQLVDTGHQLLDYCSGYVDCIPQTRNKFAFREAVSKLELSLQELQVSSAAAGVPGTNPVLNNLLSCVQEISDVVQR
# [4] = molecular target: ACVR2B (Homo sapiens (Human), UniProt Q13705)
# [5] = molecular target: AKT3 (Homo sapiens (Human), UniProt Q9Y243)
# [6] = molecular target: BRSK1 (Homo sapiens (Human), UniProt Q8TDC3)
# [7] = molecular target: CAMK1D (Homo sapiens (Human), UniProt Q8IU85)
# [8] = molecular target: CSK (Homo sapiens (Human), UniProt P41240)
# [9] = molecular target: EPHB3 (Homo sapiens (Human), UniProt P54753)
# [10] = molecular target: ERK5 (Homo sapiens (Human), UniProt Q13164)
# [11] = molecular target: αK3A (Homo sapiens (Human), UniProt P49840)
# [12] = molecular target: HCK (Homo sapiens (Human), UniProt P08631)
# [13] = molecular target: JAK1 (JH1domain-catalytic) (Homo sapiens (Human), UniProt P23458)
# Sequence of JAK1 (JH1domain-catalytic) (P23458 875-1153): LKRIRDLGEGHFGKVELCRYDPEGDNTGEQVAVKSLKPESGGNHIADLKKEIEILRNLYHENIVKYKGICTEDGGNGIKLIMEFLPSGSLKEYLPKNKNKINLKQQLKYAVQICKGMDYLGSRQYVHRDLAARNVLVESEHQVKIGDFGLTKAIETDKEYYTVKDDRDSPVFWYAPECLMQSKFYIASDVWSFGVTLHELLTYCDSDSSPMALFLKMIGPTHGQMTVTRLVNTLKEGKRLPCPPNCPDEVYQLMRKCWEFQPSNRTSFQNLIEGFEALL
# [14] = molecular target: JAK2 (JH1domain-catalytic) (Homo sapiens (Human), UniProt O60674)
# [15] = molecular target: LCK (Homo sapiens (Human), UniProt P06239)
# [16] = molecular target: LIMK2 (Homo sapiens (Human), UniProt P53671)
# [17] = molecular target: MAP3K15 (Homo sapiens (Human), UniProt Q6ZN16)
# [18] = molecular target: MAP4K2 (Homo sapiens (Human), UniProt Q12851)
# [19] = molecular target: MAST1 (Homo sapiens (Human), UniProt Q9Y2H9)
# [20] = molecular target: MEK2 (Homo sapiens (Human), UniProt P36507)
# [21] = molecular target: MET (M1250T) (Homo sapiens (Human), UniProt P08581, M1250T)
# Sequence of MET (M1250T) (P08581 25-1390 M1250T): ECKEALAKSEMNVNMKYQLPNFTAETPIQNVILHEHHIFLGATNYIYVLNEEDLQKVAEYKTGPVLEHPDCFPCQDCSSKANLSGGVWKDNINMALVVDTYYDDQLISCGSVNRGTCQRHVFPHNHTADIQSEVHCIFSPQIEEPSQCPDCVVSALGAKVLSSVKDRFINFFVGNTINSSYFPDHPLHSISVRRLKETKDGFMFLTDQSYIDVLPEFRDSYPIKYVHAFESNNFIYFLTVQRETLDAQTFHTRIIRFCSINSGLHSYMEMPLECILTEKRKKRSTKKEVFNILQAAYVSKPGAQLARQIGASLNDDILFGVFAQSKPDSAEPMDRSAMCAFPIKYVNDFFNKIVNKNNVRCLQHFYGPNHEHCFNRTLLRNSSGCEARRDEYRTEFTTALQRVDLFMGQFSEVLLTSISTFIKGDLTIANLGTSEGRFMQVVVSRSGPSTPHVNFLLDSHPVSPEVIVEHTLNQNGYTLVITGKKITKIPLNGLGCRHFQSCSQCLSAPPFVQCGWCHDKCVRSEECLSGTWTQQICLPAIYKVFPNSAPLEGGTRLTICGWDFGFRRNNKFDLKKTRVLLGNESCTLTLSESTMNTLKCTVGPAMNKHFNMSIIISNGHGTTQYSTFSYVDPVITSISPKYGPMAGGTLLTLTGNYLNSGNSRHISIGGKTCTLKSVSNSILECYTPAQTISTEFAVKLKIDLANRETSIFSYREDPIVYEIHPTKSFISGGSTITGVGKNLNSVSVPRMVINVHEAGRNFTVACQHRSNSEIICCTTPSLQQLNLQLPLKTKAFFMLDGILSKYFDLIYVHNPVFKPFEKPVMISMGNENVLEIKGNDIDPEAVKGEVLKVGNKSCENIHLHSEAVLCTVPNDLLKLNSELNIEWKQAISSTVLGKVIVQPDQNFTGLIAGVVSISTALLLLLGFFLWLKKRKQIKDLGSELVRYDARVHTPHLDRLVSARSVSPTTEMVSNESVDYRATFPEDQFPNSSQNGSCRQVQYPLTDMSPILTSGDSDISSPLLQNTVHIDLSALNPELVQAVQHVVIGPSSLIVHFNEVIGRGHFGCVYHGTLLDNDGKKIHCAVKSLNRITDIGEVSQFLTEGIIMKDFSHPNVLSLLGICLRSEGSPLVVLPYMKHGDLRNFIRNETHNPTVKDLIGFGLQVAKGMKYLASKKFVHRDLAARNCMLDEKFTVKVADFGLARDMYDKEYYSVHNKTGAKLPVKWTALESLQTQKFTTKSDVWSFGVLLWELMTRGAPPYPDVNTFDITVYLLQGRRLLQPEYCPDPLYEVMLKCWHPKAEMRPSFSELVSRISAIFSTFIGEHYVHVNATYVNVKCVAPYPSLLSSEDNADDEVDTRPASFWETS
# [22] = molecular target: MST2 (Homo sapiens (Human), UniProt Q13188)
# [23] = molecular target: MYLK4 (Homo sapiens (Human), UniProt Q86YV6)
# [24] = molecular target: NEK2 (Homo sapiens (Human), UniProt P51955)
# Sequence of NEK2 (P51955 whole entry): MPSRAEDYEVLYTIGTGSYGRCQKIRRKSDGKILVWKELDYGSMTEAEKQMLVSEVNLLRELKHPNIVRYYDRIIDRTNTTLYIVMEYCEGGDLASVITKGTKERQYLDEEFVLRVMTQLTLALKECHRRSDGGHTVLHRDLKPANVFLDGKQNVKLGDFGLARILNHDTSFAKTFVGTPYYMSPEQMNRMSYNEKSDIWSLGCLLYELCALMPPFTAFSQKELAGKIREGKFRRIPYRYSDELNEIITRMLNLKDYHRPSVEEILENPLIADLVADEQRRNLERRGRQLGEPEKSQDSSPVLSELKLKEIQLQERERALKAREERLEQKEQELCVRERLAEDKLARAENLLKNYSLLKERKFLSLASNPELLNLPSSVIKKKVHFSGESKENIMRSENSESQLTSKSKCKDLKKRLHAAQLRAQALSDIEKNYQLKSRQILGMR
# [25] = molecular target: NEK5 (Homo sapiens (Human), UniProt Q6P3R8)
# Sequence of NEK5 (Q6P3R8 whole entry): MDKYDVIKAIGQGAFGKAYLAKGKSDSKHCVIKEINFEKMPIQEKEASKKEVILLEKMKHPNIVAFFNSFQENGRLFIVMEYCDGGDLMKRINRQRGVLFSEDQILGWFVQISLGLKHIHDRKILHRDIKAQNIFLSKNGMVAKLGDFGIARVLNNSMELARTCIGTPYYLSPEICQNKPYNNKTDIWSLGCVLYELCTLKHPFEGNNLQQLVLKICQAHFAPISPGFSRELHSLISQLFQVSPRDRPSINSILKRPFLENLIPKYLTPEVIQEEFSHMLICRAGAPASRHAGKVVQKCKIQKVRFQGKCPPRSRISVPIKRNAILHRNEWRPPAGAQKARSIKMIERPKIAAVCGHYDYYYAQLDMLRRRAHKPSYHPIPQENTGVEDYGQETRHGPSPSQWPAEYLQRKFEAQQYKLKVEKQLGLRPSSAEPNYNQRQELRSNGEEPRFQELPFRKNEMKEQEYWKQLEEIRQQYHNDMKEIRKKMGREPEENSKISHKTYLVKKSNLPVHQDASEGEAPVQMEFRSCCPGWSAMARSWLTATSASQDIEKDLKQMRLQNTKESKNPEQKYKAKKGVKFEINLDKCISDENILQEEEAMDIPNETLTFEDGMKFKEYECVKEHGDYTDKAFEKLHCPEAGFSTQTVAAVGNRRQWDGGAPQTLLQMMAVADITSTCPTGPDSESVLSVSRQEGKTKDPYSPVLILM
# [26] = molecular target: NEK6 (Homo sapiens (Human), UniProt Q9HC98)
# [27] = molecular target: PDGFRB (Homo sapiens (Human), UniProt P09619)
# Sequence of PDGFRB (P09619 33-1106): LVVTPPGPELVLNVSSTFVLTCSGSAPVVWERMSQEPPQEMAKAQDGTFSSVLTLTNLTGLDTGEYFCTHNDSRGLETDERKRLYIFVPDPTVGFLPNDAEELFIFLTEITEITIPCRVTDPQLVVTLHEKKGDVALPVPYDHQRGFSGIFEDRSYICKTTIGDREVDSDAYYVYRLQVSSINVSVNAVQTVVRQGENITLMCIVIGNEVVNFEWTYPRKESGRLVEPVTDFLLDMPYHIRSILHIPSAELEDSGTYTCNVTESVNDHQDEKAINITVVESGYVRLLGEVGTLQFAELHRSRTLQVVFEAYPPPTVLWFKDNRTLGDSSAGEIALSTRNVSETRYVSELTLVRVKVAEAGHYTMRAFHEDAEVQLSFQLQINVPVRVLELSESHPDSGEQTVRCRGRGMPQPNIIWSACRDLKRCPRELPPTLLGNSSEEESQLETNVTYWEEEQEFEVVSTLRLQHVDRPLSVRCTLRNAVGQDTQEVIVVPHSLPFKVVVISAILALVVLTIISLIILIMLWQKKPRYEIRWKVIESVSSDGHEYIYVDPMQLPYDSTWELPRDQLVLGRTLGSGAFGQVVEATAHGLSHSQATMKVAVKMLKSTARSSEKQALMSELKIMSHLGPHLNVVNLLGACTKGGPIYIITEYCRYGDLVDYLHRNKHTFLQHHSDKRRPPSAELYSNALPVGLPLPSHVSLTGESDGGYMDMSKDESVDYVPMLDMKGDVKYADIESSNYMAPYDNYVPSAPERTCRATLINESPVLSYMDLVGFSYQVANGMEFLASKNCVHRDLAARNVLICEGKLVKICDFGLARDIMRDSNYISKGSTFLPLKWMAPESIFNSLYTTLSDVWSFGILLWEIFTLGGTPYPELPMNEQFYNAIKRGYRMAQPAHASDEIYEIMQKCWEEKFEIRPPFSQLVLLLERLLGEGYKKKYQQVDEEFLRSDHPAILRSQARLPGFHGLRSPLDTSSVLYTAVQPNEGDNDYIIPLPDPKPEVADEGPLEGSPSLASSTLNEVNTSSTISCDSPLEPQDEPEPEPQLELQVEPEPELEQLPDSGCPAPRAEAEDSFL
# [28] = molecular target: PDPK1 (Homo sapiens (Human), UniProt O15530)
# [29] = molecular target: PIK3C2G (Homo sapiens (Human), UniProt O75747)
# [30] = molecular target: PIM3 (Homo sapiens (Human), UniProt Q86V86)
# [31] = molecular target: PKAC-beta (Homo sapiens (Human), UniProt P22694)
# [32] = molecular target: RSK1 (Kin.Dom.1-N-terminal) (Homo sapiens (Human), UniProt Q15418)
# [33] = molecular target: RSK1 (Kin.Dom.2-C-terminal) (Homo sapiens (Human), UniProt Q15418)
# [34] = molecular target: RSK2 (Kin.Dom.1-N-terminal) (Homo sapiens (Human), UniProt P51812)
# [35] = molecular target: SGK3 (Homo sapiens (Human), UniProt Q96BR1)
# [36] = molecular target: SRPK2 (Homo sapiens (Human), UniProt P78362)
# [37] = molecular target: STK35 (Homo sapiens (Human), UniProt Q8TDR2)
# [38] = molecular target: TNIK (Homo sapiens (Human), UniProt Q9UKE5)
# [39] = molecular target: YSK1 (Homo sapiens (Human), UniProt O00506)
# [40] = molecular target: ZAK (Homo sapiens (Human), UniProt Q9NYL2)
# [41] = molecular target: ZAP70 (Homo sapiens (Human), UniProt P43403)
compound,measurement,setting,value
COc1ccc(N2C(=O)N(c3c(C)cccc3C)Cc3cnc(Nc4ccc(N5CCN(C)CC5)cc4)nc32)c(OC)c1 [HG-11-136-01],KINOMEscan ABL1-nonphosphorylated,[1],0
same,KINOMEscan ABL1-phosphorylated,[2],0
same,KINOMEscan ABL2,[3],0.35
same,KINOMEscan ACVR2B,[4],3.2
same,KINOMEscan AKT3,[5],100
same,KINOMEscan BRSK1,[6],100
same,KINOMEscan CAMK1D,[7],68
same,KINOMEscan CSK,[8],0.3
same,KINOMEscan EPHB3,[9],0
same,KINOMEscan ERK5,[10],84
same,KINOMEscan αK3A,[11],100
same,KINOMEscan HCK,[12],0.05
same,KINOMEscan JAK1 (JH1domain-catalytic),[13],57
same,KINOMEscan JAK2 (JH1domain-catalytic),[14],0.75
same,KINOMEscan LCK,[15],0.05
same,KINOMEscan LIMK2,[16],0
same,KINOMEscan MAP3K15,[17],40
same,KINOMEscan MAP4K2,[18],0.3
same,KINOMEscan MAST1,[19],62
same,KINOMEscan MEK2,[20],0.2
same,KINOMEscan MET (M1250T),[21],46
same,KINOMEscan MST2,[22],0.75
same,KINOMEscan MYLK4,[23],60
same,KINOMEscan NEK2,[24],75
same,KINOMEscan NEK5,[25],98
same,KINOMEscan NEK6,[26],100
same,KINOMEscan PDGFRB,[27],0
same,KINOMEscan PDPK1,[28],100
same,KINOMEscan PIK3C2G,[29],87
same,KINOMEscan PIM3,[30],90
same,KINOMEscan PKAC-beta,[31],66
same,KINOMEscan RSK1 (Kin.Dom.1-N-terminal),[32],48
same,KINOMEscan RSK1 (Kin.Dom.2-C-terminal),[33],9.7
same,KINOMEscan RSK2 (Kin.Dom.1-N-terminal),[34],12
same,KINOMEscan SGK3,[35],77
same,KINOMEscan SRPK2,[36],93
same,KINOMEscan STK35,[37],49
same,KINOMEscan TNIK,[38],2.8
same,KINOMEscan YSK1,[39],19
same,KINOMEscan ZAK,[40],1.2
same,KINOMEscan ZAP70,[41],25
